Assay results published in PMC6880814, “Skeletocutins M–Q: biologically active compounds from the fruiting bodies of the basidiomycete Skeletocutis sp. collected in Africa” (Beilstein Journal of Organic Chemistry, 2019).
Values after ≈ are worked out from the molar mass of the structure shown. Values joined by “and” are separate entries in the source; they are usually repeats but may differ in a detail not shown here. Equal values may be shown once. “Also recorded” adds a separate entry of the source.

Assays:
[1] = system: surface-bound aminopeptidases of KB3.1 cells; assay: Inhibition of ʟ-Leu-AMC hydrolysis (leucine aminopeptidases); type: cell-based; conditions: for IC50, inhibition of ʟ-Leu-AMC hydrolysis: KB3.1 cells
Experimental: Hydrolysis of ʟ-Leu-AMC by the surface-bound aminopeptidases of KB3.1 cells was assayed based on the method from Weber and co-workers with slight modifications. KB3.1 cells were grown as monolayer cultures in Dulbecco's modified Eagle's medium (DMEM) containing 10% fetal calf serum at 37 °C in 24-well multidishes. After three days, the confluent monolayers were washed twice with phosphate buffered saline (PBS), and the reaction mixture (450 µL Hanks' buffer at pH 7.2 containing 50 or 100 µM substrate ʟ-Leu-AMC, compounds dissolved in 50 µL DMSO) was added. After being incubated at 23 °C for 30 min, 1 mL cold 0.2 M glycine buffer at pH 10.5 was added. The amount of hydrolyzed 7-amino-4-methylcoumarin (AMC) was measured in a Tecan Infinite M200 PRO fluorescence spectrophotometer (excitation and emission at λ = 365 and 440 nm, respectively). Bestatin [12] and DMSO were used as positive and negative control, respectively.

S. aureus DSM1104 = assay: Inhibition of biofilm formation; type: cell-based, Staphylococcus aureus; design: biofilm inhibition results from plate reader: reference not given here; conditions: for biofilm inhibition results from plate reader: raw reading, replications 1-3; for inhibition of biofilm formation (in words): S. aureus
Experimental: The assay was performed in Falcon® 96-well flat bottom plates as previously described. […] Methanol was used as negative control, while tetracycline was used as positive control. All experiments were made in triplicates.

[2] = system: surface-bound aminopeptidases of KB3.1 cells; assay: Inhibition of ʟ-Leu-AMC hydrolysis (leucine aminopeptidases); type: cell-based; conditions: at 50 and 110 µM substrate concentration
[3] = system: several Gram-positive bacteria (Bacillus subtilis, S. aureus, MRSA, Micrococcus luteus); design: method as in PMID 31310114; conditions: B. subtilis, M. luteus; cited from earlier work
[4] = system: leucine aminopeptidase in HeLa S3 cells; design: method as in PMID 1620745; conditions: 50 μM substrate concentration; cited from earlier work

SMILES | IC50, inhibition of ʟ-Leu-AMC hydrolysis ([1]; ʟ-Leu-AMC (50 µM)) [µg/mL] | IC50, inhibition of ʟ-Leu-AMC hydrolysis ([1]; ʟ-Leu-AMC (100 µM)) [µg/mL] | IC50, inhibition of ʟ-Leu-AMC hydrolysis [2] [µg/mL] | biofilm inhibition results from plate reader (S. aureus DSM1104; 8 µg/ml) | biofilm inhibition results from plate reader (S. aureus DSM1104; 16 µg/ml) | biofilm inhibition results from plate reader (S. aureus DSM1104; 32 µg/ml) | biofilm inhibition results from plate reader (S. aureus DSM1104; 64 µg/ml) | biofilm inhibition results from plate reader (S. aureus DSM1104; 128 µg/ml) | biofilm inhibition results from plate reader (S. aureus DSM1104; 256 µg/ml) | inhibition of biofilm formation (in words) (S. aureus DSM1104) | ʟ-Leu-AMC inhibition assay (in words) [1] | activity against Gram-positive bacteria (in words) [3] | IC50, similar assay against HeLa S3 cells [4] [µg/mL]
CC(C)C[C@H](NC(=O)[C@@H](O)[C@H](N)Cc1ccccc1)C(=O)O [Bestatin, reference compound] | 10.8 | 40.9 | – | – | – | – | – | – | – | – | – | – | –
CC1=C(CCCCCCCCCCCCCCCCCCC2=C(C)C(=O)OC2=O)C(=O)OC1=O [Compound 1, 1,18-bis[4′-methyl-2′,5′-dioxo-3′-furyl]octadecane] | – | – | – | 3.282 and 3.031 and 2.758 | 3.706 and 3.472 and 3.059 | 3.45 and 3.219 and 3.38 | 3.207 and 4.69 and 3.419 | 3.365 and 3.804 and 3.615 | 4.909 and 5.651 and 4.54 | – | – | – | –
CC1=C(CCCCCCCCCCCCCCCCCCCCC2=C(C)C(=O)OC2=O)C(=O)OC1=O [Compound 2, skeletocutin N] | – | – | – | 3.048 and 2.841 and 2.718 | 2.916 and 2.987 and 2.995 | 3.176 and 3.059 and 3.016 | 2.823 and 3.791 and 2.979 | 3.623 and 4.381 and 3.14 | 4.44 and 4.077 and 4.364 | – | – | – | –
CC1=C(CCCCCCCCCCCCCCCCCC/C=C(\CC(=O)O)C(=O)O)C(=O)OC1=O [Compound 3, (E)-2-(19-(4’-methyl-2’,5’-dioxo-2’,5’-dihydrofuran-3’-yl)nonadecylidene)butanedioic acid] | 89.6 | 130.4 | > 80 | 2.88 and 3.631 and 3.132 | 2.837 and 3.385 and 3.2 | 2.875 and 3.534 and 3.458 | 3.373 and 3.63 and 3.041 | 3.752 and 3.854 and 3.496 | 1.742 and 2.419 and 2.26 | moderately inhibited; also recorded: weakly inhibit | performed moderately | – | –
CN(C)[C@@H]1C(O)=C(C(N)=O)C(=O)[C@@]2(O)C(O)=C3C(=O)c4c(O)cccc4[C@@](C)(O)[C@H]3C[C@@H]12 [Tetracycline, reference compound] | – | – | – | – | – | 1.107 and 1.315 and 1.404 and 1.155 and 0.918 and 0.791 | 0.885 and 0.917 and 0.836 and 0.83 and 0.627 and 0.95 | 0.622 and 0.527 and 0.478 and 0.693 and 0.655 and 0.765 | 0.462 and 0.414 and 0.487 and 0.644 and 0.444 and 0.498 | – | – | – | –

Continued, in another order:

IC50, inhibition of ʟ-Leu-AMC hydrolysis ([1]; ʟ-Leu-AMC (50 µM)) [µg/mL] | IC50, inhibition of ʟ-Leu-AMC hydrolysis ([1]; ʟ-Leu-AMC (100 µM)) [µg/mL] | IC50, inhibition of ʟ-Leu-AMC hydrolysis [2] [µg/mL] | SMILES | biofilm inhibition results from plate reader (S. aureus DSM1104; 8 µg/ml) | biofilm inhibition results from plate reader (S. aureus DSM1104; 16 µg/ml) | biofilm inhibition results from plate reader (S. aureus DSM1104; 32 µg/ml) | biofilm inhibition results from plate reader (S. aureus DSM1104; 64 µg/ml) | biofilm inhibition results from plate reader (S. aureus DSM1104; 128 µg/ml) | biofilm inhibition results from plate reader (S. aureus DSM1104; 256 µg/ml) | inhibition of biofilm formation (in words) (S. aureus DSM1104) | ʟ-Leu-AMC inhibition assay (in words) [1] | activity against Gram-positive bacteria (in words) [3] | IC50, similar assay against HeLa S3 cells [4] [µg/mL]
71.1 | 102.3 | – | CC1=C(CCCCCCCCCCCCCCCCC/C=C(\C(=O)O)C(CC(=O)O)C(=O)O)C(=O)OC1=O (stereo not drawn) [Compound 4, (Z)-21-(4’-methyl-2’,5’-dioxo-2’,5’-dihydrofuran-3’-yl)henicos-3-ene-1,2,3-tricarboxylic acid] | 4.243 and 3.452 and 3.554 | 4.47 and 3.878 and 4.114 | 4.702 and 3.439 and 4.271 | 3.957 and 3.887 and 3.524 | 4.03 and 4.115 and 4.224 | 6 and 5.066 and 4.841 | – | performed moderately | – | –
153.2 | 225.3 | > 80 | CC1=C(CCCCCCCCCCCCCCCCCCC(C(=O)O)C(CC(=O)O)C(=O)O)C(=O)OC1=O (stereo not drawn) [Compound 5, 21-(4’-methyl-2’,5’-dioxo-2’,5’-dihydrofuran-3’-yl)henicosane-1,2,3-tricarboxylic acid] | 3.444 and 2.956 and 3.704 | 3.633 and 3.438 and 3.879 | 4.452 and 3.838 and 3.757 | 3.708 and 3.627 and 3.623 | 3.871 and 3.836 and 3.597 | 3.822 and 3.87 and 3.988 | weakly inhibit | – | – | –
138.4 | – | – | CC1=C(CCCCCCCCCCCCCCCCC2=C(C)C(=O)OC2=O)C(=O)OC1=O [Compound 6, tyromycin A] | 3.766 and 3.772 and 3.586 | 3.612 and 3.954 and 4.007 | 3.328 and 3.954 and 3.188 | 3.105 and 3.723 and 3.478 | 3.861 and 2.858 and 2.819 | 4.54 and 3.949 and 6 | – | – | active | 31 (≈ 69.4 µM)
